According to PubChem BioAssay (NCI):
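Protocol summary: plate cells (96-well), add compound at 5 concentrations, incubate 48 h, interpolate endpoints linearly. Abbreviation: GI50, concentration required for 50% inhibition of growth. TGI denotes the concentration required for complete inhibition of growth.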

Experiments:
Experiment in all cases: DTP human tumour cell line panel, 48 h
OVCAR-8 ovarian = tested on: OVCAR-8 ovarian
HCT-15 colon = tested on: HCT-15 colon
KM12 colon = tested on: KM12 colon
M14 melanoma = tested on: M14 melanoma
UACC-62 melanoma = tested on: UACC-62 melanoma
NCI-H23 lung = tested on: NCI-H23 lung
SNB-19 CNS = tested on: SNB-19 CNS
SK-MEL-5 melanoma = tested on: SK-MEL-5 melanoma
T-47D breast = tested on: T-47D breast
SNB-75 CNS = tested on: SNB-75 CNS
MALME-3M melanoma = tested on: MALME-3M melanoma
LOX IMVI melanoma = tested on: LOX IMVI melanoma
HOP-62 NSCLC = tested on: HOP-62 NSCLC
SF-268 CNS = tested on: SF-268 CNS
SN12C renal = tested on: SN12C renal
DU-145 prostate = tested on: DU-145 prostate
TK-10 renal = tested on: TK-10 renal
SK-MEL-28 melanoma = tested on: SK-MEL-28 melanoma
BT-549 breast = tested on: BT-549 breast
NCI-H522 lung = tested on: NCI-H522 lung
OVCAR-4 ovarian = tested on: OVCAR-4 ovarian
COLO 205 colon = tested on: COLO 205 colon
MDA-MB-231 breast = tested on: MDA-MB-231 breast
SK-OV-3 ovarian = tested on: SK-OV-3 ovarian
A498 renal = tested on: A498 renal
EKVX NSCLC = tested on: EKVX NSCLC
CCRF-CEM leukemia = tested on: CCRF-CEM leukemia
786-0 renal = tested on: 786-0 renal
SR leukemia = tested on: SR leukemia
NCI-H226 lung = tested on: NCI-H226 lung
HS 578T breast = tested on: HS 578T breast
HCT-116 colon = tested on: HCT-116 colon
MDA-MB-435 = tested on: MDA-MB-435
HT29 colon = tested on: HT29 colon
OVCAR-5 ovarian = tested on: OVCAR-5 ovarian
OVCAR-3 ovarian = tested on: OVCAR-3 ovarian
MOLT-4 leukemia = tested on: MOLT-4 leukemia
RXF 393 renal = tested on: RXF 393 renal
PC-3 prostate = tested on: PC-3 prostate
SF-539 CNS = tested on: SF-539 CNS
SF-295 CNS = tested on: SF-295 CNS
NCI/ADR-RES ovarian = tested on: NCI/ADR-RES ovarian
ACHN renal = tested on: ACHN renal
A549 NSCLC = tested on: A549 NSCLC
HCC-2998 colon = tested on: HCC-2998 colon
U251 CNS = tested on: U251 CNS
UO-31 renal = tested on: UO-31 renal
HOP-92 NSCLC = tested on: HOP-92 NSCLC
UACC-257 melanoma = tested on: UACC-257 melanoma
SW-620 colon = tested on: SW-620 colon
RPMI-8226 leukemia = tested on: RPMI-8226 leukemia
HL-60(TB) leukemia = tested on: HL-60(TB) leukemia
IGROV1 ovarian = tested on: IGROV1 ovarian
MCF7 breast = tested on: MCF7 breast
SK-MEL-2 melanoma = tested on: SK-MEL-2 melanoma
NCI-H460 lung = tested on: NCI-H460 lung

CN1C[C@@H](c2ccc(Cl)cc2)[C@]2(NC(=S)N(c3ccc(F)c(Cl)c3)C2=O)[C@@]12C(=O)NC1C=CC(Cl)=C[C@H]12 (some centres not stated)
GI50 (OVCAR-8 ovarian): 2.78 µM | TGI (OVCAR-8 ovarian): 8.6 µM | GI50 (HCT-15 colon): 3 µM | TGI (HCT-15 colon): 10.3 µM | GI50 (KM12 colon): 2 µM | TGI (KM12 colon): 4.92 µM | GI50 (M14 melanoma): 2.95 µM | TGI (M14 melanoma): 10.6 µM | GI50 (UACC-62 melanoma): 3.11 µM | TGI (UACC-62 melanoma): 12.3 µM | GI50 (NCI-H23 lung): 2.66 µM | TGI (NCI-H23 lung): 10.1 µM | GI50 (SNB-19 CNS): 3.17 µM | TGI (SNB-19 CNS): 14.4 µM | GI50 (SK-MEL-5 melanoma): 1.97 µM | TGI (SK-MEL-5 melanoma): 4.21 µM | GI50 (T-47D breast): 2.85 µM | TGI (T-47D breast): 13.6 µM | GI50 (SNB-75 CNS): 1.87 µM | TGI (SNB-75 CNS): 9.92 µM | GI50 (MALME-3M melanoma): 2.81 µM | TGI (MALME-3M melanoma): 9.09 µM | GI50 (LOX IMVI melanoma): 1.7 µM | TGI (LOX IMVI melanoma): 3.33 µM | GI50 (HOP-62 NSCLC): 3.14 µM | TGI (HOP-62 NSCLC): 12.7 µM | GI50 (SF-268 CNS): 2.89 µM | TGI (SF-268 CNS): 11.2 µM | GI50 (SN12C renal): 1.86 µM | TGI (SN12C renal): 3.74 µM | GI50 (DU-145 prostate): 3.35 µM | TGI (DU-145 prostate): 12.6 µM | GI50 (TK-10 renal): 3.48 µM | TGI (TK-10 renal): 8.06 µM | GI50 (SK-MEL-28 melanoma): 3.61 µM | TGI (SK-MEL-28 melanoma): 12.9 µM | GI50 (BT-549 breast): 4.62 µM | TGI (BT-549 breast): 17.1 µM | GI50 (NCI-H522 lung): 2.84 µM | TGI (NCI-H522 lung): 10.9 µM | GI50 (OVCAR-4 ovarian): 3.75 µM | TGI (OVCAR-4 ovarian): 18.6 µM | GI50 (COLO 205 colon): 1.75 µM | TGI (COLO 205 colon): 3.46 µM | GI50 (MDA-MB-231 breast): 1.88 µM | TGI (MDA-MB-231 breast): 4.27 µM | GI50 (SK-OV-3 ovarian): 3.09 µM | TGI (SK-OV-3 ovarian): 10.4 µM | GI50 (A498 renal): 2.74 µM | TGI (A498 renal): 10.1 µM | GI50 (EKVX NSCLC): 2.72 µM | TGI (EKVX NSCLC): 20.3 µM | GI50 (CCRF-CEM leukemia): 4.13 µM | TGI (CCRF-CEM leukemia): 18.6 µM | GI50 (786-0 renal): 2.08 µM | TGI (786-0 renal): 4.82 µM | GI50 (SR leukemia): 2.79 µM | TGI (SR leukemia): 7.18 µM | GI50 (NCI-H226 lung): 1.82 µM | TGI (NCI-H226 lung): 4.72 µM | GI50 (HS 578T breast): 2.96 µM | TGI (HS 578T breast): 16.7 µM | GI50 (HCT-116 colon): 3.12 µM | TGI (HCT-116 colon): 10.2 µM | GI50 (MDA-MB-435): 3.02 µM | TGI (MDA-MB-435): 11.2 µM | GI50 (HT29 colon): 2.1 µM | TGI (HT29 colon): 4.24 µM | GI50 (OVCAR-5 ovarian): 2.36 µM | TGI (OVCAR-5 ovarian): 6.14 µM | GI50 (OVCAR-3 ovarian): 2.12 µM | TGI (OVCAR-3 ovarian): 4.75 µM | GI50 (MOLT-4 leukemia): 2.87 µM | TGI (MOLT-4 leukemia): 14.6 µM | GI50 (RXF 393 renal): 1.88 µM | TGI (RXF 393 renal): 3.73 µM | GI50 (PC-3 prostate): 2.25 µM | TGI (PC-3 prostate): 6.42 µM | GI50 (SF-539 CNS): 3.29 µM | TGI (SF-539 CNS): 12.2 µM | GI50 (SF-295 CNS): 1.89 µM | TGI (SF-295 CNS): 4.46 µM | GI50 (NCI/ADR-RES ovarian): 2.54 µM | TGI (NCI/ADR-RES ovarian): 8.97 µM | GI50 (ACHN renal): 3.07 µM | TGI (ACHN renal): 10.6 µM | GI50 (A549 NSCLC): 3.34 µM | TGI (A549 NSCLC): 12.3 µM | GI50 (HCC-2998 colon): 3.85 µM | TGI (HCC-2998 colon): 13.8 µM | GI50 (U251 CNS): 2.01 µM | TGI (U251 CNS): 4.71 µM | GI50 (UO-31 renal): 1.6 µM | TGI (UO-31 renal): 3.86 µM | GI50 (HOP-92 NSCLC): 2.49 µM | TGI (HOP-92 NSCLC): 7.13 µM | GI50 (UACC-257 melanoma): 3.48 µM | TGI (UACC-257 melanoma): 14.1 µM | GI50 (SW-620 colon): 3.19 µM | TGI (SW-620 colon): 13.1 µM | GI50 (RPMI-8226 leukemia): 2.72 µM | TGI (RPMI-8226 leukemia): 7.06 µM | GI50 (HL-60(TB) leukemia): 2.48 µM | TGI (HL-60(TB) leukemia): 6.02 µM | GI50 (IGROV1 ovarian): 3.12 µM | TGI (IGROV1 ovarian): 14.6 µM | GI50 (MCF7 breast): 2.82 µM | TGI (MCF7 breast): 12 µM | GI50 (SK-MEL-2 melanoma): 3.08 µM | TGI (SK-MEL-2 melanoma): 10.3 µM | GI50 (NCI-H460 lung): 2.44 µM | TGI (NCI-H460 lung): 6.09 µM
